Reference: PMC13070491, “Single-nucleus transcriptomics, pharmacokinetics, and pharmacodynamics of CDK4/6 and mTOR inhibition in a Phase 0/1 trial of recurrent high-grade glioma” (Neuro-Oncology, 2025)
“And” between values parts separate entries of the source, which are not always exact repeats. Equal entries are not always repeated.

Experiment: CNS penetration: total and unbound drug concentrations in tumor regions, CSF and plasma (LC-MS/MS, equilibrium dialysis);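 also: drug levels in patient tumor tissue from contrast-enhancing and non-enhancing regions sampled under MRI-guided neuronavigation, with plasma and CSF drawn during surgical resection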
Settings: for concentration at 5 days / Kp at 120 h / Kp: human, oral
[1] = Level 6: Ribociclib 600mg QD + Everolimus 70mg once on Day 5, sampling 7-9 Hours, per patient

## CO[C@H]1C[C@@H]2CC[C@@H](C)[C@@](O)(O2)C(=O)C(=O)N2CCCC[C@H]2C(=O)O[C@H]([C@H](C)C[C@@H]2CC[C@@H](OCCO)[C@H](OC)C2)CC(=O)[C@H](C)/C=C(\C)[C@@H](O)[C@@H](OC)C(=O)[C@H](C)C[C@H](C)/C=C/C=C/C=C/1C [Everolimus, everolimus]
Level 5: Ribociclib 600mg QD + Everolimus 60mg once on Day 5, sampling 7-9 Hours, per patient
  Everolimus.Unbound.plasma: 4.09E-04 and 6.26E-04 and 4.66E-04
[1]
  Everolimus.CSF: 1.14E-02 and BLQ and 1.29E-03
  Everolimus.Enhancing.tumor: 7.18E-02 and 9.00E-02 and 3.12E-02
  Everolimus.Non-enhancing.tumor: 7.82E-02 and 8.24E-03 and 6.80E-03
  Everolimus.Plasma.conc: 0.0531 and 0.05464 and 0.09057
  Everolimus.Unbound.enhancing: BLQ
  Everolimus.Unbound.non-enhancing: BLQ
  Everolimus.Unbound.plasma: 3.00E-04 and 2.82E-04 and 4.90E-04
Everolimus 2.5 mg QD 5 days
  Kp total drug tumor-to-plasma partition ratio, Enhancing tumor, MAX: 2.738
  Kp total drug tumor-to-plasma partition ratio, Enhancing tumor, MIN: BLQ
  Kp total drug tumor-to-plasma partition ratio, Non-enhancing tumor, MAX: 1.02
  Kp total drug tumor-to-plasma partition ratio, Non-enhancing tumor, MIN: BLQ
Everolimus 5 mg QD 5 days
  Kp total drug tumor-to-plasma partition ratio, Enhancing tumor, MAX: 1.77
  Kp total drug tumor-to-plasma partition ratio, Enhancing tumor, MIN: 0.59
  Kp total drug tumor-to-plasma partition ratio, Non-enhancing tumor, MAX: 1.09
  Kp total drug tumor-to-plasma partition ratio, Non-enhancing tumor, MIN: 0.37
Everolimus 10 mg QD 5 days
  Kp total drug tumor-to-plasma partition ratio, Enhancing tumor, MAX: 1.97
  Kp total drug tumor-to-plasma partition ratio, Enhancing tumor, MIN: BLQ
  Kp total drug tumor-to-plasma partition ratio, Non-enhancing tumor, MAX: 1.07
  Kp total drug tumor-to-plasma partition ratio, Non-enhancing tumor, MIN: 0.07
Everolimus 50 mg single dose
  Kp total drug tumor-to-plasma partition ratio, Enhancing tumor, MAX: 1.18
  Kp total drug tumor-to-plasma partition ratio, Enhancing tumor, MIN: 0.65
  Kp total drug tumor-to-plasma partition ratio, Non-enhancing tumor, MAX: 0.32
  Kp total drug tumor-to-plasma partition ratio, Non-enhancing tumor, MIN: BLQ
Everolimus 60 mg single dose
  Kp total drug tumor-to-plasma partition ratio, Enhancing tumor, MAX: 1.24
  Kp total drug tumor-to-plasma partition ratio, Enhancing tumor, MIN: 0.145
  Kp total drug tumor-to-plasma partition ratio, Non-enhancing tumor, MAX: 0.51
Everolimus 70 mg single dose
  Kp total drug tumor-to-plasma partition ratio, Enhancing tumor, MAX: 1.64
  Kp total drug tumor-to-plasma partition ratio, Enhancing tumor, MIN: 0.34
  Kp total drug tumor-to-plasma partition ratio, Non-enhancing tumor, MAX: 1.47
  Kp total drug tumor-to-plasma partition ratio, Non-enhancing tumor, MIN: 0.075
CSF, Total everolimus, MAX, 10 mg QD 5 days
  concentration at 5 days: 2.5 nM
CSF, Total everolimus, MAX, 50 mg single dose
  concentration at 5 days: 1.5 nM
CSF, Total everolimus, MED, 2.5 mg QD 5 days
  concentration at 5 days: 0.33 nM
CSF, Total everolimus, MED, 50 mg single dose
  concentration at 5 days: 0.935 nM
CSF, median everolimus CSF concentration, across the different dose levels
  concentration at 5 days: 0.48 nM
Enhancing tumor and plasma, 2.5 mg
  Kp at 120 h: 0.62
Enhancing tumor and plasma, 5 mg
  Kp at 120 h: 1.32
Enhancing tumor and plasma, 10 mg
  Kp at 120 h: 1.2
Enhancing tumor and plasma, 50 mg
  Kp: 0.89
Enhancing tumor and plasma, 60 mg
  Kp: 0.33
Enhancing tumor and plasma, 70 mg
  Kp: 1.35
Enhancing tumor, Total everolimus, MAX, 2.5 mg QD 5 days
  concentration at 5 days: 83.4 nM
Enhancing tumor, Total everolimus, MAX, 5 mg QD 5 days
  concentration at 5 days: 39.8 nM
Enhancing tumor, Total everolimus, MAX, 10 mg QD 5 days
  concentration at 5 days: 61.3 nM
Enhancing tumor, Total everolimus, MAX, 50 mg single dose
  concentration at 5 days: 74.1 nM
Enhancing tumor, Total everolimus, MAX, 60 mg single dose
  concentration at 5 days: 87.6 nM
Enhancing tumor, Total everolimus, MAX, 70 mg single dose
  concentration at 5 days: 90 nM
Enhancing tumor, Total everolimus, MED, 2.5 mg QD 5 days
  concentration at 5 days: 5.9 nM
Enhancing tumor, Total everolimus, MED, 5 mg QD 5 days
  concentration at 5 days: 16.6 nM
Enhancing tumor, Total everolimus, MED, 10 mg QD 5 days
  concentration at 5 days: 44 nM
Enhancing tumor, Total everolimus, MED, 50 mg single dose
  concentration at 5 days: 54.5 nM
Enhancing tumor, Total everolimus, MED, 60 mg single dose
  concentration at 5 days: 30.4 nM
Enhancing tumor, Total everolimus, MED, 70 mg single dose
  concentration at 5 days: 71.8 nM
Enhancing tumor, Total everolimus, MIN, 5 mg QD 5 days
  concentration at 5 days: 11.1 nM
Enhancing tumor, Total everolimus, MIN, 50 mg single dose
  concentration at 5 days: 51.6 nM
Enhancing tumor, Total everolimus, MIN, 60 mg single dose
  concentration at 5 days: 9.8 nM
Enhancing tumor, Total everolimus, MIN, 70 mg single dose
  concentration at 5 days: 31.2 nM
non-enhancing tumor / plasma, 5 mg
  Kp at 120 h: 0.89
non-enhancing tumor / plasma, 10 mg
  Kp at 120 h: 0.1
non-enhancing tumor and plasma, 2.5 mg
  Kp at 120 h: 0.49
non-enhancing tumor and plasma, 50 mg
  Kp: 0.21
non-enhancing tumor and plasma, 60 mg
  Kp: 0.17
non-enhancing tumor and plasma, 70 mg
  Kp: 0.15
non-enhancing tumor, Total everolimus, MAX, 2.5 mg QD 5 days
  concentration at 5 days: 35.3 nM
non-enhancing tumor, Total everolimus, MAX, 5 mg QD 5 days
  concentration at 5 days: 20.2 nM
non-enhancing tumor, Total everolimus, MAX, 10 mg QD 5 days
  concentration at 5 days: 33.3 nM
non-enhancing tumor, Total everolimus, MAX, 50 mg single dose
  concentration at 5 days: 25.1 nM
non-enhancing tumor, Total everolimus, MAX, 60 mg single dose
  concentration at 5 days: 36.1 nM
non-enhancing tumor, Total everolimus, MAX, 70 mg single dose
  concentration at 5 days: 78.2 nM
non-enhancing tumor, Total everolimus, MED, 2.5 mg QD 5 days
  concentration at 5 days: 5.28 nM
non-enhancing tumor, Total everolimus, MED, 5 mg QD 5 days
  concentration at 5 days: 10.3 nM
non-enhancing tumor, Total everolimus, MED, 10 mg QD 5 days
  concentration at 5 days: 5 nM
non-enhancing tumor, Total everolimus, MED, 50 mg single dose
  concentration at 5 days: 15.7 nM
non-enhancing tumor, Total everolimus, MED, 60 mg single dose
  concentration at 5 days: 13.8 nM
non-enhancing tumor, Total everolimus, MED, 70 mg single dose
  concentration at 5 days: 8.2 nM
non-enhancing tumor, Total everolimus, MIN, 5 mg QD 5 days
  concentration at 5 days: 9.2 nM
non-enhancing tumor, Total everolimus, MIN, 10 mg QD 5 days
  concentration at 5 days: 4.5 nM
non-enhancing tumor, Total everolimus, MIN, 60 mg single dose
  concentration at 5 days: 11.3 nM
non-enhancing tumor, Total everolimus, MIN, 70 mg single dose
  concentration at 5 days: 6.8 nM
Tumor tissue (enhancing and non-enhancing regions), unbound everolimus concentrations in enhancing and non-enhancing tumor regions (below the lower limit of quantitation), all dose levels
  concentration at 5 days: < 0.1 nM
